The source made the active and inactive calls. The rule behind the calls is not given here.
What was measured:
[1] = target: Tyrosine-protein kinase receptor UFO (Homo sapiens) (UniProt P30530); experiment: Inhibition of recombinant human AXL at 10 uM for 10 mins followed by substrate addition in presence of ATP and measured after 100 mins by ADP-Glo kinase assay; details: time 110.0 min
K562 [2] = experiment: Antiproliferative activity against human K562 cells assessed as inhibition of cell growth incubated for 48 hrs by MTT assay; type: functional, cell-based; details: K562, 48 h
[3] = target: BDNF/NT-3 growth factors receptor (Homo sapiens) (UniProt Q16620); experiment: Inhibition of recombinant human TRKB at 10 uM for 10 mins followed by substrate addition in presence of ATP and measured after 60 mins by HTRF assay; details: time 70.0 min
BDNF/NT-3 growth factors receptor (Homo sapiens), sequence (Q16620 32-822 limits assumed): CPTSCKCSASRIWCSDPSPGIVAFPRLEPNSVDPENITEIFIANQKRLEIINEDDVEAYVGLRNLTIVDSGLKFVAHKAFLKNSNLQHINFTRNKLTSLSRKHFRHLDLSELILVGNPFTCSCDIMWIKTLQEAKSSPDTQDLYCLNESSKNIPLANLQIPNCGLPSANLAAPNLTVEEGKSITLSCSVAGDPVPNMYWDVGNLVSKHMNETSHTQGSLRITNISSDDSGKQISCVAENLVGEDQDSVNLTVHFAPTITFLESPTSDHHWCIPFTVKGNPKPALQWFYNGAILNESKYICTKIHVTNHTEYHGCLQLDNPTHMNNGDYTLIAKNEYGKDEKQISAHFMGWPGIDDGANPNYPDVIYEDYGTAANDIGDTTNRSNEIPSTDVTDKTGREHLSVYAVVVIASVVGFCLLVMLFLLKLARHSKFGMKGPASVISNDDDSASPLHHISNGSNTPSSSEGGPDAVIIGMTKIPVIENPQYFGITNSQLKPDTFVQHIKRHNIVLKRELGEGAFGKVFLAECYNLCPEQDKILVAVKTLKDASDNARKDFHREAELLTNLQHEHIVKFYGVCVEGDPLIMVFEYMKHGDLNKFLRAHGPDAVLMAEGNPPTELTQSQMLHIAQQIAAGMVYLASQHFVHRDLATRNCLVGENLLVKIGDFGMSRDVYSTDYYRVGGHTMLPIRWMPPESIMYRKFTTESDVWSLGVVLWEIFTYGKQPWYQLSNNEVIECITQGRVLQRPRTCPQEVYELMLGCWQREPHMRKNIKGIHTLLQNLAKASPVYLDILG

[4] = target: Bcr/Abl fusion protein (Homo sapiens) (UniProt P00519+P11274); experiment: Inhibition of Bcr-Abl phosphorylation at Tyr245 residue in human K562 cells expressing wild type Bcr-Abl at 0.1 to 15 uM measured after 48 hrs by Western blot analysis; type: cell-based; details: dose 0.1-15 µM, DDE = dose-dependent effect
[5] = target: Platelet-derived growth factor receptor alpha (Homo sapiens) (UniProt P16234); experiment: Inhibition of recombinant human PDGFRalpha at 10 uM for 10 mins followed by substrate addition in presence of ATP and measured after 60 mins by HTRF assay; details: time 70.0 min
Platelet-derived growth factor receptor alpha (Homo sapiens), sequence (P16234 whole entry, the tested form may be a part): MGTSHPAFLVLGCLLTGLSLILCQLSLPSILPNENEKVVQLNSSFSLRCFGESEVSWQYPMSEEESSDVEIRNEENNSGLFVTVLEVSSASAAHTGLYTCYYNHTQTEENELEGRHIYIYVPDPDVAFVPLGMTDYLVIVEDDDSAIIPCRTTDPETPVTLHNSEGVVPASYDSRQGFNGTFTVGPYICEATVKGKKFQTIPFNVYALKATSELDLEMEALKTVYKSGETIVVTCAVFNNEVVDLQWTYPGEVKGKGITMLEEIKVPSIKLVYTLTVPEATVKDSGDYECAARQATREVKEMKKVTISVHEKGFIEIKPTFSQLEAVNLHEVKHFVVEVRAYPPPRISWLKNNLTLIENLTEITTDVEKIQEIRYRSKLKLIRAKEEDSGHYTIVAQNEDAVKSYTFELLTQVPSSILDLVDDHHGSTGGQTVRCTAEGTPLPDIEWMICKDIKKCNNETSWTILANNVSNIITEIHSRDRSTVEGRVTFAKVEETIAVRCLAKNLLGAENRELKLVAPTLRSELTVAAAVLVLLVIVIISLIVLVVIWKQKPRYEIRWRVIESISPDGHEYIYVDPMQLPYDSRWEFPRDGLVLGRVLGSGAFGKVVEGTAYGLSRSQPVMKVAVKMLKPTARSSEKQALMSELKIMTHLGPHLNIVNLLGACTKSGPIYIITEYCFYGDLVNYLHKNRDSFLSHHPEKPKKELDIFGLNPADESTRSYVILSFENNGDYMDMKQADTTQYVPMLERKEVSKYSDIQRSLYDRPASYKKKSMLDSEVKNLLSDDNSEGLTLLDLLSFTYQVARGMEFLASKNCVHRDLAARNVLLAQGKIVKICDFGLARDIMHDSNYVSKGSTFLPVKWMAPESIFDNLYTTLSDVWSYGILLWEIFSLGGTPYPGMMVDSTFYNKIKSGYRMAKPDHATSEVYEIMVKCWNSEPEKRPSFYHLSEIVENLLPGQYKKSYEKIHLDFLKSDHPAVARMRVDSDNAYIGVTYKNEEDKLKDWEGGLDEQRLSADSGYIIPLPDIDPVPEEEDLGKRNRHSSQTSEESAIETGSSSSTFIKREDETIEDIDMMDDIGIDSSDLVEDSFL

Bcr/Abl fusion protein = Bcr/Abl fusion protein (Homo sapiens, UniProt P00519, T315I); experiment: Inhibition of Bcr-Abl T315I mutant (unknown origin) incubated for 1 hr in presence of ATP by ADP-Glo kinase assay; type: protein assay
K562 [6] = experiment: Induction of apoptosis in human K562 cells assessed as early apoptotic cells at 10 uM incubated for 48 hrs by Annexin V-FITC/PI staining based flow cytometry analysis (Rvb= 4.35%); type: functional
K562 [7] = experiment: Induction of apoptosis in human K562 cells assessed as necrotic cells at 10 uM incubated for 48 hrs by Annexin V-FITC/PI staining based flow cytometry analysis (Rvb= 0.09%); type: functional
K562 [8] = experiment: Induction of apoptosis in human K562 cells assessed as viable cells at 1 uM incubated for 48 hrs by Annexin V-FITC/PI staining based flow cytometry analysis (Rvb=80.89%); type: functional; details: read-out: Activity
K562 [9] = experiment: Induction of cell cycle arrest in human K562 cells assessed as reduction in G0/G1 phase at 1 to 10 uM incubated for 48 hrs by PI staining based flow cytometry; type: functional; details: dose 1-10 µM
[10] = target: T1, Tyrosine-protein kinase ITK/TSK (Homo sapiens) (UniProt Q08881); experiment: Inhibition of recombinant human ITK at 10 uM for 10 mins followed by substrate addition in presence of ATP and measured after 100 mins by ADP-Glo kinase assay; details: time 110.0 min
T1 sequence (whole entry): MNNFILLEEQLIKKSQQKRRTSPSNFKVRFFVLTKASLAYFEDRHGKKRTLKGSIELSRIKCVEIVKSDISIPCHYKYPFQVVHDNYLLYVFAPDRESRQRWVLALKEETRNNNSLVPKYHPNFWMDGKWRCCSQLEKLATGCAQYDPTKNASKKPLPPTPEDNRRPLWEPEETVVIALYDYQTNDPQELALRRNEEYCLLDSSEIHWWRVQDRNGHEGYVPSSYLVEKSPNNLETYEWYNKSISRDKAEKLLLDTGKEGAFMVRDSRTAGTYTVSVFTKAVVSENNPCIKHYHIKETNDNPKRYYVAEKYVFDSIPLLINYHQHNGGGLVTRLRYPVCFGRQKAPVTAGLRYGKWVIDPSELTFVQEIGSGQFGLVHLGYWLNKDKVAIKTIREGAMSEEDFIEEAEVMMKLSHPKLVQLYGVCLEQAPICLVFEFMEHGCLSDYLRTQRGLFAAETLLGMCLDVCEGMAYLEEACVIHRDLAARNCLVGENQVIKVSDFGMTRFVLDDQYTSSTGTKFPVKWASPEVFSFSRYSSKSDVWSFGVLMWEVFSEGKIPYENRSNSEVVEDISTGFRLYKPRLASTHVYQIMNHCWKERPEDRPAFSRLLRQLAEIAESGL

K562 [11] = experiment: Induction of cell cycle arrest in human K562 cells assessed as accumulation at G2/M phase at 1 to 10 uM incubated for 48 hrs by PI staining based flow cytometry (Rvb= 12.23%); type: functional; details: dose 1-10 µM
K-562R = experiment: Antiproliferative activity against human K-562R cells expressing Bcr-Abl T315I mutant assessed as inhibition of cell growth incubated for 48 hrs by MTT assay; type: functional, cell-based
K562 [12] = experiment: Induction of apoptosis in human K562 cells assessed as late apoptotic cells at 1 uM incubated for 48 hrs by Annexin V-FITC/PI staining based flow cytometry analysis (Rvb= 14.66%); type: functional
[13] = target: Dual specificity tyrosine-phosphorylation-regulated kinase 1B (Homo sapiens) (UniProt Q9Y463); experiment: Inhibition of recombinant human DYRK1B at 10 uM for 10 mins followed by substrate addition in presence of ATP and measured after 100 mins by ADP-Glo kinase assay; details: time 110.0 min
Dual specificity tyrosine-phosphorylation-regulated kinase 1B (Homo sapiens), sequence (Q9Y463 whole entry, looked up): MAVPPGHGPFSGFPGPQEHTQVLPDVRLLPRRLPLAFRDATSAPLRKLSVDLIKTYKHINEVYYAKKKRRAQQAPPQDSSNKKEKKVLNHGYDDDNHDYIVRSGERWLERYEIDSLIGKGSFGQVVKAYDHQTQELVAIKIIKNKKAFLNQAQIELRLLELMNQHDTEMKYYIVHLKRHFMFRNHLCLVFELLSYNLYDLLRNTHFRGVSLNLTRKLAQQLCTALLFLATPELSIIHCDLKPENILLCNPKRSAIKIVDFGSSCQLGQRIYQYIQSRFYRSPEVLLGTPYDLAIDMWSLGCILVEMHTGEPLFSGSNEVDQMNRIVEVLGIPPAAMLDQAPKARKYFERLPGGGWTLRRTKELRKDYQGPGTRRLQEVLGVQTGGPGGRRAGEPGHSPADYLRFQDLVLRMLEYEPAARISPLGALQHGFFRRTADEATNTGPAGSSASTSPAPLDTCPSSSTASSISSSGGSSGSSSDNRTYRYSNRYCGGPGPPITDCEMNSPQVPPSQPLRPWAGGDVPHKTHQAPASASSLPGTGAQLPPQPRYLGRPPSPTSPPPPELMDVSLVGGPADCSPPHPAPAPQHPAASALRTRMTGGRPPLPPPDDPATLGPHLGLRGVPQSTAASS

[14] = target: T2, Signal transducer and activator of transcription 5A (Homo sapiens) (UniProt P42229); experiment: Inhibition of STAT5 phosphorylation at Tyr694 residue in human K562 cells expressing wild type Bcr-Abl at 0.1 to 15 uM measured after 48 hrs by Western blot analysis; type: cell-based; details: dose 0.1-15 µM, DDE = dose-dependent effect
T2 sequence (whole entry): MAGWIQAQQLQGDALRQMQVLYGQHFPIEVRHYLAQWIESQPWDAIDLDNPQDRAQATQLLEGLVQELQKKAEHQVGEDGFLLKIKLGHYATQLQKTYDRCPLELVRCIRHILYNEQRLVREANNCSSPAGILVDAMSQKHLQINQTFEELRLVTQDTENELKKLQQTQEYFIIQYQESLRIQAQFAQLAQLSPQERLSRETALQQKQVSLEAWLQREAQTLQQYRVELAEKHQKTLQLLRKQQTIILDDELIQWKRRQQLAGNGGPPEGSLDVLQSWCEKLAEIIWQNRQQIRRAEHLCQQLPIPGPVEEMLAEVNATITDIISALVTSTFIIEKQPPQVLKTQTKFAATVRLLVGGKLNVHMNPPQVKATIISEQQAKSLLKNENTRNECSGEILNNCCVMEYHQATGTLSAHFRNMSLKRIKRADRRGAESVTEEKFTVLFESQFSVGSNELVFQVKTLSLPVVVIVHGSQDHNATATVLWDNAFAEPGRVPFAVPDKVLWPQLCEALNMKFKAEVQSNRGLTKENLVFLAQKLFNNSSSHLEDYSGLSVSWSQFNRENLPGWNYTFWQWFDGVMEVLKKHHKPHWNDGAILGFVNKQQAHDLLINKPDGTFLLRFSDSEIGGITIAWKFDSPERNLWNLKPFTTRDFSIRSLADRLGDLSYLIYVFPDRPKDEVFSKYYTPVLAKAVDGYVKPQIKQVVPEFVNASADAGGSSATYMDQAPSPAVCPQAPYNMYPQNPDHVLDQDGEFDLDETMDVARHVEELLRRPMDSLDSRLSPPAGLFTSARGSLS

K562 [15] = experiment: Induction of apoptosis in human K562 cells assessed as viable cells at 10 uM incubated for 48 hrs by Annexin V-FITC/PI staining based flow cytometry analysis (Rvb=80.89%); type: functional; details: read-out: Activity

Tyrosine-protein kinase receptor UFO (Homo sapiens), sequence (P30530 whole entry): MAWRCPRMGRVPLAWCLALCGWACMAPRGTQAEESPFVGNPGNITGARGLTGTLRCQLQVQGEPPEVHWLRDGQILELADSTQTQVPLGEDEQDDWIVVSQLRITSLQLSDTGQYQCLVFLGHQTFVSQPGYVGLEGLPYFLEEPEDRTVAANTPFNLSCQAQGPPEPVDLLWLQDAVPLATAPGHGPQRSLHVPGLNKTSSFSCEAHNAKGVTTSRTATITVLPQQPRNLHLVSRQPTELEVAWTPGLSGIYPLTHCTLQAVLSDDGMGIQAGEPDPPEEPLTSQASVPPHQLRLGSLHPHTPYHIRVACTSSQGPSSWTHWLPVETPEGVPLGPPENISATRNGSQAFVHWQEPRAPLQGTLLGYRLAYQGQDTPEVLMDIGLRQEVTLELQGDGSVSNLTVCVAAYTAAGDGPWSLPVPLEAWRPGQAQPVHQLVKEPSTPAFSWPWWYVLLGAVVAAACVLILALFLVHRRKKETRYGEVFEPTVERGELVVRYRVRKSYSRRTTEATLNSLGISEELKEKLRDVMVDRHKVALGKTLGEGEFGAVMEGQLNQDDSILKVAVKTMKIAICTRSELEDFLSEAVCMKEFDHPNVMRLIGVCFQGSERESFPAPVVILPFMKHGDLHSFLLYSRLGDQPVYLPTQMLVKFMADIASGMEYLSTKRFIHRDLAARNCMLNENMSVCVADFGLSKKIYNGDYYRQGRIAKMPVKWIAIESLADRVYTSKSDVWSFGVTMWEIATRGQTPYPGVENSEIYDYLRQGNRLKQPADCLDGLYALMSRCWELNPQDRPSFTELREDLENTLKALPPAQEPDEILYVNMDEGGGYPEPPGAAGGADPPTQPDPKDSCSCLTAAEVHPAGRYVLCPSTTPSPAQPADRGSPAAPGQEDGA

- inhibition [1]: 56.4%
- IC50 (K562 [2]): 740 nM
- inhibition [3]: 54.3%
- inhibition [4]: Dde
- inhibition [5]: 87.9%
- IC50 (Bcr/Abl fusion protein): 190 nM
- inhibition [10]: 41.1%
- IC50 (K-562R): 1910 nM
- inhibition [13]: 68.4%
- inhibition [14]: Dde
SMILES: O=C(Nc1nc2ccc(-c3cn([C@@H]4CN[C@H](C(=O)Nc5ccc(Cl)cc5Cl)C4)nn3)nc2s1)C1CC1
- Activity (K562 [6]): 7.16%
- Activity (K562 [7]): 0.01%
- viability at 1 µM (K562 [8]): 76.9%
- Activity (K562 [9]): Active
- Activity (K562 [11]): 37.12%
- Activity (K562 [12]): 19.42%
- viability at 10 µM (K562 [15]): 49.7%

Reference: ChEMBL document CHEMBL5113400, “Design, synthesis, and biological evaluation of trizole-based heteroaromatic derivatives as Bcr-Abl kinase inhibitors” (Eur J Med Chem, 2022)
